Assay results reported in patent publication US8445539B2, “Alpha-aminoamide derivatives useful in the treatment of psychiatric disorders” (priority 2007, dated 2013).

Tests used:
[1] = system: MK-801 induced hyperlocomotion; assay: MK-801 induced hyperlocomotion in mice; type: in vivo; conditions: MK-801 induced locomotion in mice
Experimental: Glutamate N-methyl-D-aspartate (NMDA) receptor antagonists, like phencyclidine (PCP) or MK-801, elicit schizophrenia-like symptoms in humans and behavioural abnormalities in animals, such as hyperactivity. Atypical antipsychotics decrease hyperlocomotion produced in mice by MK-801 or PCP and this represents a commonly used animal models predictive of efficacy against the symptoms of schizophrenia. Vehicle or compound was injected 30-35 min before the animal entered the activity chambers. Hyperlocomotion was produced in mice by administration of MK-801 (0.3 mg/kg) 15 min before the animal entered the activity chambers (i.e., […] min after vehicle or compound administration) and the total distance traveled in centimeters was determined during a 15-30 min session. The increase in MK-801-induced total distance traveled were attenuated by active compounds.

NMDA receptor complex = assay: Inhibition of NMDA receptor complex, whole cell patch clamp in cortical neurons; type: cell-based; conditions: primary rat cortical neurons; holding -70 mV; NMDA 100 μM + glycine 10 μM; read-out: IC50 of NMDA-induced currents
Experimental: Cortical neurons were prepared from embryonic Wistar rats (E17-E19). A female rat at date 17-19 of pregnancy was anesthetized and sacrificed. The foetuses (n=4-5) were dissected and placed in ice-cold Hank's solution (Hank's solution (Life tech. 14170-088)+glucose 30%+Pen-Strep 100× (Life Tech. 15140-122) 100 U-100 μg/mL and Hepes-NaOH 5 mM).
The brain of the foetuses was cut in two halves, and each cortex was cut in smaller parts with a scissors, the pieces were transferred to a 15 mL centrifuge tube using a 5 mL pipette and washed twice with Hank's solution. […]
Cells were counted and diluted in Neurobasal medium to a concentration of 400000 cells per poly-D-lysine 5 μg/mL treated Petri dish. […]
Experiments on cortical neurons were carried out using standard whole cell patch clamp methods (Hamill et al., 1981. Pflügers Archly: European Journal of Physiology 391(2):85-100). Membrane currents were recorded and filtered at 5 kHz with an Axon Axopatch 200B amplifier and data digitized with an Axon Digidata 1322A (Axon Instruments, CA, USA). […]
Data were analyzed using Clampfit 9 (Axon Instruments, CA) and Origin 7.5 (Microcal Inc., Northampton, Mass., USA) software. Data points and results were expressed as arithmetic mean±S.E. […]

[2] = system: anxiety-like behaviour in Open Field; assay: Anxiety open field test; type: in vivo; conditions: open field test in rats
Excerpt: The Open Field test is commonly used to assess locomotor, exploratory and anxiety-like behaviour in rats or mice. This test is particularly useful in evaluating the effects of anxiolytic and anxiogenic drugs, locomotor responses to drug and as well as behavioural responses to novelty.
The Open Field test task approaches the conflict between the innate fear that rats have of the central area of a novel or brightly lit open field versus their desire to explore new environments. When anxious, the natural tendency of rodents is to prefer staying closed to the walls (thigmotaxis). In this context, anxiety-related behaviour is measured by the degree to which the rat avoids the center of the Open Field test.
The Open Field arena consists of an empty and bright square arena surrounded by walls to prevent animal from escaping. The arena (90 cm×90 cm×40 cm height) was divided into 6×6 grid of equally-sized squares using black tape. […]
The rat is placed in the center of the arena and its behaviour recorded on video over a chosen period (from 5 to 15 min) and scored.
Time spent in each category of square is recorded. In addition, the fifteen minute open-field test is divided into 3 blocks of 5 minutes and total locomotor activity is scored as the number of square entries in each five minute block. […] Finally, the latency to visit the large centre and any one of the four corners is scored manually. […]

## C[C@H](NCc1ccc(OCc2ccccc2F)cc1)C(N)=O [Ralfinamide methanesulfonate, (S)-(+)-2-[4-(2-fluorobenzyloxy)benzylamino]propanamide]
[1]
  Activity in schizophrenia animal model (Example 5): active
NMDA receptor complex
  IC50: 7.3 µM
[2]
  Activity in anxiety animal model (Example 6): active
